# In patent US6451814B1, “Heterocyclic β-3 adrenergic receptor agonists” (Wyeth, priority 2000, dated 2002):
# Read-outs that look alike come from different tables or passages of the source.
# Tests used:
# [1] = target: T1, human β3-adrenergic receptor (Homo sapiens, UniProt P13945); assay: cAMP response (SPA kit) in CHO cells transfected with human β3 adrenergic receptor; format: cell-based; conditions: for EC50: CHO cells expressing human β3-AR, 10^-9 M to 10^-5 M, 30 min at 37° C., cAMP by SPA; for IA(β3): maximal response of compound compared to maximal response of isoproterenol at 10^-5 M, CHO cells, human β3-AR
# T1 construct: Full length β3 AR clones (402 amino acids) containing the last 6 amino acids of hβ3—AR are prepared; expressed in transfected cells; host or cells: CHO cells
# T1 sequence (P13945 whole entry): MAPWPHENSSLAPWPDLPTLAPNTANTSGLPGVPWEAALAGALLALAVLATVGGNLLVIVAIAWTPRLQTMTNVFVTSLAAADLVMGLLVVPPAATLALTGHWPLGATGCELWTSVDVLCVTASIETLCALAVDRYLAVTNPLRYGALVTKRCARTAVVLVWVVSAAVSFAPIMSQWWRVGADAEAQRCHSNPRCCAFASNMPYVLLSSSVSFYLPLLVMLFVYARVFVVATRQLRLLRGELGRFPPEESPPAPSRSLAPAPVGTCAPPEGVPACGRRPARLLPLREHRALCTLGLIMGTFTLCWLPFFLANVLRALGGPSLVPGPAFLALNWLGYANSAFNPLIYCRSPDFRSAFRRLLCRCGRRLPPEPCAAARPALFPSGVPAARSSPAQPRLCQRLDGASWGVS
Compound,EC50 ([1]; read-out: EC50(β3)) [µM],IA(β3) [1],melting point [°C],"EC50 ([1]; EC50(β3, μM)) [µM]"
"O=C(NCCCCCCCCF)N1CCC(Nc2ccc(CCNC[C@H](O)COc3ccc(O)cc3)cc2)CC1 [Example 55, N-(8-Fluorooctyl)-4-[4-(2-{[(2S)-2-hydroxy-3-(4-hydroxyphenoxy)propyl]amino}ethyl)anilino]-1-piperidinecarboxamide]",0.171,1.07,148 to 150,
"COc1ccc(CCCCNC(=O)N2CCC(Nc3ccc(CCNCC(O)COc4ccc(O)cc4)cc3)CC2)cc1OC (stereo not drawn) [Example 57, 4-(4-{2-[2-Hydroxy-3-(4-hydroxy-phenoxy)-propylamino]-ethyl}-phenylamino)-piperidine-1-carboxylic Acid [4-(3,4-dimethoxy-phenyl)-butyl]-amide]",,0.94,60 to 62,
"CCCCCCCCNC(=O)N1CCC(Nc2ccc(CCNC[C@H](O)COc3ccc(O)c(F)c3)cc2)CC1 [Example 65, 4-(4-{2-[(2S)-3-(3-Fluoro-4-hydroxy-phenoxy)-2-hydroxy-propylamino]-ethyl}-phenylamino)-piperidine-1-carboxylic Acid Octylamide]",0.3,0.57,60 to 62,
"CCCCCCCCNC(=O)N1CCC(Nc2ccc(CCNC[C@H](O)COc3ccc(O)c4c3CCC(=O)N4)cc2)CC1 [Example 69, 4-(4-{2-[(2S)-2-Hydroxy-3-(8-hydroxy-2-oxo-1,2,3,4-tetrahydro-quinolin-5-yloxy)-propylamino]-ethyl}-phenylamino)-piperidine-1-carboxylicacid Octylamide]",,0.67,83 to 85,
"O=C(NCC1CCCC1)N1CCC(Nc2ccc(CCNC[C@H](O)COc3ccc(O)cc3)cc2)CC1 [Example 70, 4-(4-{2-[(2S)-2-Hydroxy-3-(4-hydroxy-phenoxy)-propylamino]-ethyl}-phenylamino)-piperidine-1-carboxylic Acid Cyclopentylmethyl-amide]",0.106,1,76 to 78,
"COc1cc(OCCCOc2ccccc2)ccc1CCNC(=O)N1CCC(Nc2ccc(CCNC[C@H](O)COc3ccc(O)cc3)cc2)CC1 [Example 71, 4-(4-{2-[(2S)-2-Hydroxy-3-(4-hydroU-phenoxy)-propylamino]-ethyl}-phenylamino)-piperidine-1-carboxylic Acid {2-[2-methoxy-4-(3-phenoxy-propoxy)-phenyl]-ethyl}-amide]",0.14,0.94,67 to 69,
"CN(C)C(=O)Oc1ccc(CCNC(=O)N2CCC(Nc3ccc(CCNC[C@H](O)COc4ccc(O)cc4)cc3)CC2)cc1 [Example 74, Dimethyl-carbamic Acid 4-(2-{[4-(4-{2-[(2S)-2-hydroxy-3-(4-hydroxy-phenoxy)-propylamino]-ethyl}-phenylamino)-piperidine-1-carbonyl]-amino}-ethyl)-phenyl Ester]",,0.88,86 to 88,0.045
"CS(=O)(=O)Nc1cc([C@@H](O)CNCCc2ccc(NC3CCN(C(=O)NCc4cc(F)ccc4F)CC3)cc2)ccc1O [Example 76, 4-(4-{2-[(2R)-2-Hydroxy-2-(4-hydroxY-3-methanesulfonylamino-phenyl)-ethylamino]-ethyl}-phenylamino)-piperidine-1-carboxylic Acid 2,5-difluoro-benzylamide]",,1,116 to 118,

# Continued, in another order:
EC50 ([1]; read-out: EC50(β3)) [µM],IA(β3) [1],melting point [°C],Compound,"EC50 ([1]; EC50(β3, μM)) [µM]"
0.003,1,160 to 162,"CCCCCCCCNC(=O)N1CCC(Nc2ccc(CCNC[C@H](O)c3ccc(O)c(NS(C)(=O)=O)c3)cc2)CC1 [Example 59, 4-(4-{2-[(2R)-2-Hydroxy-2-(4-hydroxy-3-methanesulfonylamino-phenyl)-ethylamino]-ethyl}-phenylamino)-piperidine-1-carboxylic Acidoctylamide]",
0.012,0.45,113 to 115,"CCCCCCCCNC(=O)N1CCC(Nc2ccc(CCNC[C@H](O)COc3cccc4[nH]c(=O)[nH]c34)cc2)CC1 [Example 60, 4-(4-{2-[(2S)-2-Hydroxy-3-(2-oxo-2,3-dihydro-1H-benzoimidazol-4-yloxy)-propylamino]-ethyl}-phenylamino)-piperidine-1-carboxylic Acidoctylamide]",
0.089,1.34,69 to 71,"CCOC(=O)C1CCN(C(=O)N2CCC(Nc3ccc(CCNC[C@H](O)COc4ccc(O)cc4)cc3)CC2)CC1 [Example 61, 1-[4-(4-{2-[(2S)-2-Hydroxy-3-(4-hydroxy-phenoxy)-propylamino]-ethyl}-phenylamino)-piperidine-1-carbonyl]-piperidine-4-carboxylic Acid Ethyl Ester]",
0.029,0.92,141 to 143,"CCCCCCNC(=O)Nc1ccc(CNC(=O)N2CCC(Nc3ccc(CCNC[C@H](O)COc4ccc(O)cc4)cc3)CC2)cc1 [Example 67, 4-(4-{2-[(2S)-2-Hydroxy-3-(4-hydroxy-phenoxy)-propylamino]-ethyl}-phenylamino)-piperidine-1-carboxylic Acid 4-(3-hexyl-ureido)-benzylamide]",
0.039,1.1,69 to 71,"O=C(NCCCC1CCCCC1)N1CCC(Nc2ccc(CCNC[C@H](O)COc3ccc(O)cc3)cc2)CC1 [Example 68, 4-(4-{2-[(2S)-2-Hydroxy-3-(4-hydroxy-phenoxy)-propylamino]-ethyl}-phenylamino)-piperidine-1-carboxylic Acid (3-cyclohexyl-propyl)-amide]",
0.066,0.9,100 to 102,"O=C(c1cc2cccc([N+](=O)[O-])c2[nH]1)N1CCC(Nc2ccc(CCNC[C@H](O)COc3ccc(O)cc3)cc2)CC1 [Example 95, [4-(4-{2-[(2S)-2-Hydroxy-3-(4-hydroxy-phenoxy)-propylamino]-ethyl}-phenylamino)-piperidin-1-yl]-(7-nitro-1H-indol-2-yl)-methanone]",
0.009,1.08,90 to 92,"O=C(c1c[nH]c2ccccc12)N1CCC(Nc2ccc(CCNC[C@H](O)COc3ccc(O)cc3)cc2)CC1 [Example 99, [4-(4-{2-[(2S)-2-Hydroxy-3-(4-hydroxy-phenoxy)-propylamino]-ethyl}-phenylamino)-piperidin-1-yl]-(1H-indol-3-yl)-methanone]",
0.074,0.9,57 to 59,"CCCCCC(=O)N1CCC(Nc2ccc(CCNC[C@H](O)COc3ccc(O)cc3)cc2)CC1 [Example 103, 1-[4-(4-{2-[(2S)-2-Hydroxy-3-(4-hydroxy-phenoxy)-propylamino]-ethyl}-phenylamino)-piperidin-1-yl]-hexan-1-one]",
0.085,0.97,87 to 89,"O=C([C@@H]1CCCN1S(=O)(=O)c1ccc(F)cc1)N1CCC(Nc2ccc(CCNC[C@H](O)COc3ccc(O)cc3)cc2)CC1 [Example 104, [(2S)-1-(4-Fluoro-benzenesulfonyl)-pyrrolidin-2-yl]-[4-(4-{2-[(2S)-2-hydroxy-3-(4-hydroxy-phenoxy)-propylamino]-ethyl}-phenylamino)-piperidin-1-yl]-methanone]",
